Source: the NIST ThermoML archive (doi:10.1016/j.jct.2019.02.027)
Values joined by “and” are separate entries in the source; they are usually repeats but may differ in a detail not shown here. Equal values may be shown once. ± gives the expanded uncertainty stated by the source.

Experiments:
[1] = 298.15 K; 101.33 kPa; Liquid; Vibrating tube method
[2] = xn = mol fraction of the nth substance listed; conditions: 298.15 K, 100 kPa, Liquid, Vibrating tube method

CCCO [propan-1-ol]
Conditions | mass density [kg/m3]
[1] | 799.97 ± 0.64

CCCO [propan-1-ol] + O=Cc1ccco1
Conditions | mass density [kg/m3]
[2], x2 = 0 | 799.97 ± 2.8

CCCC(C)O (configuration not stated) [pentan-2-ol] + O=Cc1ccco1
[2]
Conditions | mass density [kg/m3]
x2 = 0 | 806.48 ± 3.8
x2 = 0.092 | 831.24 ± 3.9
x2 = 0.1912 | 859.17 ± 3.9
x2 = 0.2652 | 880.87 ± 3.9
x2 = 0.3627 | 910.83 ± 3.9
x2 = 0.4245 | 930.64 ± 3.9
x2 = 0.4984 | 955.28 ± 3.9
x2 = 0.5417 | 970.2 ± 3.9
x2 = 0.6211 | 998.57 ± 3.9
x2 = 0.6746 | 1018.53 ± 3.9
x2 = 0.7117 | 1032.71 ± 3.9
x2 = 0.7692 | 1055.38 ± 3.9
x2 = 0.8249 | 1078.15 ± 3.9
x2 = 0.879 | 1101.1 ± 4
x2 = 0.9111 | 1115.13 ± 4
x2 = 0.9542 | 1134.34 ± 4

O=Cc1ccco1 [2-furaldehyde] + CCC(C)O
[2]
Conditions | mass density [kg/m3]
x1 = 0.0237 | 810.18 ± 2.9
x1 = 0.0782 | 827.38 ± 2.9
x1 = 0.1343 | 845.24 ± 3
x1 = 0.1345 | 845.28 ± 3
x1 = 0.2696 | 889.52 ± 3
x1 = 0.2773 | 892.16 ± 3
x1 = 0.417 | 939.59 ± 3
x1 = 0.4498 | 951 ± 3
x1 = 0.535 | 980.92 ± 3
x1 = 0.6274 | 1014.08 ± 3
x1 = 0.6673 | 1028.58 ± 3
x1 = 0.7355 | 1053.74 ± 3
x1 = 0.803 | 1079.08 ± 3
x1 = 0.8794 | 1108.12 ± 3.1
x1 = 1 | 1155.45 ± 2.8

CCC(C)O (configuration not stated) [butan-2-ol] + O=Cc1ccco1
Conditions | mass density [kg/m3]
[2], x2 = 0 | 802.88 ± 2.8

Cc1ccco1 [2-methylfuran] + CCCCCO
[2]
Conditions | mass density [kg/m3]
x1 = 0.1002 | 819.28 ± 2.5
x1 = 0.1263 | 821.43 ± 2.5
x1 = 0.1771 | 825.74 ± 2.5
x1 = 0.22 | 829.43 ± 2.5
x1 = 0.2723 | 834 ± 2.5
x1 = 0.3399 | 840.06 ± 2.5
x1 = 0.4257 | 848.01 ± 2.5
x1 = 0.4599 | 851.26 ± 2.5
x1 = 0.5134 | 856.49 ± 2.5
x1 = 0.593 | 864.51 ± 2.5
x1 = 0.6556 | 871.07 ± 2.5
x1 = 0.7006 | 875.92 ± 2.5
x1 = 0.7559 | 881.98 ± 2.5
x1 = 0.8293 | 890.24 ± 2.5
x1 = 0.8836 | 896.44 ± 2.5
x1 = 1 | 910.73 ± 2.4

Cc1ccco1 [2-methylfuran] + CCC(C)O
[2]
Conditions | mass density [kg/m3]
x1 = 0.0549 | 808.11 ± 2.8
x1 = 0.0656 | 809.45 ± 2.8
x1 = 0.0952 | 812.22 ± 2.8
x1 = 0.1847 | 821.08 ± 2.8
x1 = 0.2954 | 831.67 ± 2.8
x1 = 0.3763 | 839.84 ± 2.8
x1 = 0.4673 | 849.03 ± 2.8
x1 = 0.5696 | 859.9 ± 2.8
x1 = 0.6998 | 873.97 ± 2.8
x1 = 0.7611 | 881.06 ± 2.8
x1 = 0.8132 | 887.16 ± 2.9
x1 = 0.8548 | 891.9 ± 2.9
x1 = 0.8832 | 895.12 ± 2.9
x1 = 0.8998 | 897.35 ± 2.9
x1 = 0.9091 | 898.45 ± 2.9
x1 = 0.9333 | 901.44 ± 2.9
x1 = 1 | 910.73 ± 2.4

Cc1ccco1 [2-methylfuran] + CC(C)O
[2]
Conditions | mass density [kg/m3]
x1 = 0.0267 | 785.02 ± 2.6
x1 = 0.0493 | 788.28 ± 2.6
x1 = 0.0908 | 794.29 ± 2.6
x1 = 0.1257 | 799.31 ± 2.6
x1 = 0.179 | 806.65 ± 2.6
x1 = 0.2619 | 817.86 ± 2.6
x1 = 0.2995 | 822.82 ± 2.6
x1 = 0.3935 | 835.05 ± 2.6
x1 = 0.537 | 853.23 ± 2.6
x1 = 0.6047 | 861.52 ± 2.6
x1 = 0.6784 | 870.65 ± 2.6
x1 = 0.7217 | 876.04 ± 2.6
x1 = 0.8122 | 886.89 ± 2.6
x1 = 0.8256 | 888.45 ± 2.6
x1 = 0.8759 | 894.66 ± 2.6
x1 = 0.9472 | 903.47 ± 2.6
x1 = 1 | 910.73 ± 2.4

CCCC(C)O (configuration not stated) [pentan-2-ol] + Cc1ccco1
Conditions | mass density [kg/m3]
[2], x2 = 0 | 806.48 ± 3.6

CCCCCCO [hexan-1-ol] + O=Cc1ccco1
Conditions | mass density [kg/m3]
[2], x2 = 0 | 815.9 ± 3.8

Cc1ccco1 [2-methylfuran] + CCCC(C)O
[2]
Conditions | mass density [kg/m3]
x1 = 0.0907 | 813.42 ± 3.6
x1 = 0.1322 | 816.51 ± 3.6
x1 = 0.1794 | 820.47 ± 3.6
x1 = 0.2576 | 827.04 ± 3.6
x1 = 0.3029 | 831.05 ± 3.6
x1 = 0.4278 | 842.47 ± 3.6
x1 = 0.4997 | 849.64 ± 3.6
x1 = 0.6108 | 861.2 ± 3.6
x1 = 0.6993 | 871.1 ± 3.6
x1 = 0.7296 | 874.59 ± 3.6
x1 = 0.8143 | 884.9 ± 3.6
x1 = 0.8675 | 891.71 ± 3.6
x1 = 0.9023 | 896.39 ± 3.6
x1 = 0.9441 | 902.21 ± 3.6
x1 = 1 | 910.73 ± 3.6

CCCCCCO [hexan-1-ol] + Cc1ccco1
Conditions | mass density [kg/m3]
[2], x2 = 0 | 815.9 ± 3.6

CCCCCCO [hexan-1-ol]
Conditions | mass density [kg/m3]
[1] | 815.9 ± 2.8

Cc1ccco1 [2-methylfuran]
Conditions | mass density [kg/m3]
[1] | 910.73 ± 2.2

CCC(C)O (configuration not stated) [butan-2-ol] + Cc1ccco1
Conditions | mass density [kg/m3]
[2], x2 = 0 | 802.88 ± 2.4

O=Cc1ccco1 [2-furaldehyde] + CCCO
[2]
Conditions | mass density [kg/m3]
x1 = 0.0847 | 834.01 ± 3
x1 = 0.134 | 853.46 ± 3
x1 = 0.2237 | 888 ± 3
x1 = 0.2415 | 894.81 ± 3
x1 = 0.2507 | 898.28 ± 3
x1 = 0.2827 | 910.39 ± 3
x1 = 0.3632 | 940.23 ± 3.1
x1 = 0.4309 | 964.88 ± 3.1
x1 = 0.5022 | 990.31 ± 3.1
x1 = 0.6164 | 1030.13 ± 3.1
x1 = 0.7194 | 1065 ± 3.1
x1 = 0.7803 | 1085.14 ± 3.1
x1 = 0.8714 | 1114.75 ± 3.2
x1 = 0.9006 | 1124.2 ± 3.2
x1 = 0.9038 | 1125.2 ± 3.2
x1 = 1 | 1155.45 ± 2.8

O=Cc1ccco1 [2-furaldehyde]
Conditions | mass density [kg/m3]
[1] | 1155.45 ± 2.8

CCO [ethanol]
Conditions | mass density [kg/m3]
[1] | 785.45 ± 1

CCO [ethanol] + O
[2]
Conditions | mass density [kg/m3]
x1 = 0.0641 | 970.7 ± 3.1
x1 = 0.127 | 952.3 ± 2.7
x1 = 0.1461 | 950.1 ± 2.4
x1 = 0.2437 | 920.1 ± 2.8
x1 = 0.387 | 883.5 ± 2.7
x1 = 0.4238 | 876.2 ± 2.5
x1 = 0.7084 | 825.2 ± 2.4
x1 = 1 | 785.5 ± 2.3

CC(C)O [propan-2-ol] + O=Cc1ccco1
Conditions | mass density [kg/m3]
[2], x2 = 0 | 780.95 ± 2.8

CCCCCO [pentan-1-ol] + O=Cc1ccco1
Conditions | mass density [kg/m3]
[2], x2 = 0 | 810.9 ± 2.8

CC(C)O [propan-2-ol]
Conditions | mass density [kg/m3]
[1] | 780.95 ± 1

CC(C)O [propan-2-ol] + Cc1ccco1
Conditions | mass density [kg/m3]
[2], x2 = 0 | 780.95 ± 2.4

O=Cc1ccco1 [2-furaldehyde] + CCCCCO
[2]
Conditions | mass density [kg/m3]
x1 = 0.0837 | 833.12 ± 2.9
x1 = 0.1212 | 843.42 ± 2.9
x1 = 0.1906 | 863.01 ± 2.9
x1 = 0.2617 | 883.85 ± 2.9
x1 = 0.2997 | 895.29 ± 2.9
x1 = 0.3856 | 922.11 ± 2.9
x1 = 0.4254 | 934.98 ± 2.9
x1 = 0.5075 | 962.35 ± 2.9
x1 = 0.5396 | 973.38 ± 2.9
x1 = 0.6236 | 1003.18 ± 3
x1 = 0.708 | 1034.59 ± 3
x1 = 0.7358 | 1045.18 ± 3
x1 = 0.7671 | 1057.41 ± 3
x1 = 0.8967 | 1110.25 ± 3
x1 = 0.9015 | 1112.3 ± 3
x1 = 1 | 1155.45 ± 2.8

O=Cc1ccco1 [2-furaldehyde] + CCCC(C)O
Conditions | mass density [kg/m3]
[2], x1 = 1 | 1155.45 ± 3.8

Cc1ccco1 [2-methylfuran] + CCCCCCO
[2]
Conditions | mass density
x1 = 0.048 | 819.02 ± 3.7 kg/m3
x1 = 0.0765 | 820.93 ± 3.7 kg/m3
x1 = 0.1423 | 825.44 ± 3.7 kg/m3
x1 = 0.2086 | 830.14 ± 3.7 kg/m3
x1 = 0.2804 | 835.45 ± 3.7 kg/m3
x1 = 0.3598 | 841.72 ± 3.7 kg/m3
x1 = 0.4591 | 850.07 ± 3.7 kg/m3
x1 = 0.4916 | 852.91 ± 3.7 kg/m3
x1 = 0.5728 | 860.42 ± 3.7 kg/m3
x1 = 0.6478 | 867.88 ± 3.7 kg/m3
x1 = 0.7472 | 878.45 ± 3.7 kg/m3 and 878.33 ± 3.7 kg/m3
x1 = 0.7965 | 884.09 ± 3.7 kg/m3
x1 = 0.8596 | 891.67 ± 3.7 kg/m3
x1 = 0.888 | 895.23 ± 3.7 kg/m3
x1 = 0.9411 | 902.08 ± 3.7 kg/m3
x1 = 1 | 910.73 ± 3.6 kg/m3

CCCCCO [pentan-1-ol]
Conditions | mass density [kg/m3]
[1] | 810.9 ± 1

CCC(C)O (configuration not stated) [butan-2-ol]
Conditions | mass density [kg/m3]
[1] | 802.88 ± 1

CCCCCO [pentan-1-ol] + Cc1ccco1
Conditions | mass density [kg/m3]
[2], x2 = 0 | 810.9 ± 2.4

CCCC(C)O (configuration not stated) [pentan-2-ol]
Conditions | mass density [kg/m3]
[1] | 806.48 ± 2.8

O=Cc1ccco1 [2-furaldehyde] + CC(C)O
[2]
Conditions | mass density [kg/m3]
x1 = 0.0534 | 803.11 ± 3
x1 = 0.0877 | 817.2 ± 3
x1 = 0.1839 | 856.01 ± 3
x1 = 0.2041 | 864.12 ± 3
x1 = 0.2517 | 882.87 ± 3
x1 = 0.2794 | 893.74 ± 3
x1 = 0.2855 | 896.16 ± 3
x1 = 0.4063 | 942.61 ± 3.1
x1 = 0.5153 | 983.56 ± 3.1
x1 = 0.5364 | 991.32 ± 3.1
x1 = 0.5702 | 1003.8 ± 3.1
x1 = 0.6564 | 1035.2 ± 3.1
x1 = 0.7345 | 1063.04 ± 3.1
x1 = 0.8252 | 1094.94 ± 3.2
x1 = 0.9055 | 1122.98 ± 3.2
x1 = 1 | 1155.45 ± 2.8

O=Cc1ccco1 [2-furaldehyde] + CCCCCCO
[2]
Conditions | mass density [kg/m3]
x1 = 0.0958 | 837.47 ± 3.9
x1 = 0.1364 | 847.08 ± 3.9
x1 = 0.1378 | 847.41 ± 3.9
x1 = 0.2218 | 868.43 ± 3.9
x1 = 0.2573 | 877.76 ± 3.9
x1 = 0.2623 | 879.07 ± 3.9
x1 = 0.2983 | 888.83 ± 3.9
x1 = 0.3699 | 909.14 ± 3.9
x1 = 0.4124 | 921.74 ± 3.9
x1 = 0.4947 | 947.51 ± 3.9
x1 = 0.4965 | 948.07 ± 3.9
x1 = 0.5802 | 976.2 ± 3.9
x1 = 0.6437 | 998.96 ± 3.9
x1 = 0.7375 | 1035.07 ± 3.9
x1 = 0.7661 | 1046.67 ± 3.9
x1 = 0.7703 | 1048.36 ± 3.9
x1 = 0.847 | 1081.45 ± 3.9
x1 = 0.8939 | 1102.9 ± 3.9
x1 = 1 | 1155.45 ± 3.8
